Converted amounts (≈) assume the structure as drawn.
How the values were obtained:
[1] = Decomposition kinetics of formoterol in aqueous solution (stability testing by HPLC at accelerated temperatures); type: physicochemical
Excerpt: In the embodiments herein, the compositions have a pH of about 2.0 to about 8.0. In other embodiments, the compositions have a pH of about 4.0 to about 6.0, or about 4.5 to about 5.5. In certain of the above embodiments, the compositions are formulated at a pH of about 4, 4.4 or 4.6 up to about 5.5, 5.7 or 6. In other embodiments, the pH is about 5.0.
In other of the above embodiments, the compositions further contain a buffer, including, but not limited to, citric acid/phosphate, acetate, barbital, borate, Britton-Robinson, cacodylate, citrate, collidine, formate, maleate, Mcllvaine, phosphate, Prideaux-Ward, succinate, citrate-phosphate-borate (Teorell-Stanhagen), veronal acetate, MES (2-(N-morpholino)ethanesulfonic acid), BIS-TRIS (bis(2-hydroxyethyl)iminotris(hydroxymethyl)methane), ADA (N-(2-acetamido)-2-iminodiacetic acid), ACES (N-(carbamoylmethyl)-2-aminoethanesulfonic acid), PIPES (piperazirie-N,N′-bis(2-ethanesulfonic acid)), MOPSO (3-(N-morpholino)-2-hydroxypropanesulfonic acid), BIS-TRIS PROPANE (1,3-bis(tris(hydroxymethyl)methylamino)propane), BES (N,N-bis(2-hydroxyethyl)-2-aminoethanesulfonic acid), MOPS (3-(N-morpholino)propanesulfonic acid), TES (N-tris(hydroxymethyl)methyl-2-aminoethanesulfonic acid), HEPES (N-(2-hydroxyethyl)piperazine-N′-(2-ethanesulfonic acid), DIPSO (3-(N,N-bis(2-hydroxyethyl)amino)-2-hydroxypropanesulfonic acid), MOBS (4-(N-morpholino)butanesulfonic acid), TAPSO (3-(N-tris(hydroxymethyl)methylamino)-2-hydroxypropanesulfonic acid), TRIZMAO (tris(hydroxymethylaminomethane), HEPPSO (N-(2-hydroxyethyl)piperazine-N′-(2-hydroxypropanesulfonic acid), POPSO (piperazine-N,N′-bis(2-hydroxypropanesulfonic acid)), TEA (triethanolamine), EPPS (N-(2-hydroxyethyl)piperazine-N′-(3-propanesulfonic acid), TRICINE (N-tris(hydroxymethyl)methylglycine), GLY-GLY (glycylglycine), BICINE (N;N-bis(2-hydroxyethyl)glycine), HEPBS (N-(2-hydroxyethyl)piperazine-N′-(4-butanesulfonic acid)), TAPS (N-tris(hydroxymethyl)methyl-3-aminopropanesulfonic acid), AMPD (2-amino-2-methyl-1,3-propanediol), and/or any other buffers known to those of skill in the art. In one embodiment, the buffer is citric acid/phosphate buffer, acetate buffer, citrate buffer or phosphate buffer. In another embodiment, the buffer is a citrate buffer (citric acid/sodium citrate). […] Buffer concentrations for use herein include from about 0 or 0.01 mM to about 150 mM, or about 1 mM to about 20 mM. In one embodiment, the buffer concentration is about 5 mM. In another embodiment, the buffer concentration is about 1 mM to about 50 mM, or about 20 mM. […] The particular buffer and buffer concentration of a given composition for long term storage provided herein may be determined empirically using standard stability assays well known to those of skill in the art (see, e.g., the Examples).
The solutions were stored at 60° C.
(§1) Stability samples of the solutions prepared in EXAMPLES 1 and 2 were placed in scintillation vials with teflon-lined caps and stored in stability ovens at accelerated temperatures. At selected time points, aliquots of the samples were removed from the scintillation vials.

[2] = Estimated shelf-life of formoterol in the compositions (Arrhenius kinetics); type: physicochemical; settings: in the compositions provided herein
Excerpt: as §1

[3] = patients with reversible obstructive respiratory diseases; cited from earlier work

## COc1ccc(CC(C)NCC(O)c2ccc(O)c(NC=O)c2)cc1 (racemic) [formoterol, 2-hydroxy-5-((1RS)-1-hydroxy-2-(((1RS)-2-(p-methoxyphenyl)-1-methylethyl)amino)ethyl)formanilide]
[1]; 60° C., buffer concentration 5 mM, ionic strength 0.05
  pH at which decomposition in aqueous solution is slowest: about 5.0
[1]; 60° C., pH 3, buffer concentration 5 mM, ionic strength 0.05
  rate constant (kobs) for decomposition of an aqueous solution: approximately 0.62 day^−1
[1]; 60° C., pH 4, buffer concentration 5 mM, ionic strength 0.05
  rate constant (kobs) for decomposition of an aqueous solution: ~0.11 day⁻¹
[1]; 60° C., pH 5, buffer concentration 5 mM, ionic strength 0.05
  rate constant (kobs) for decomposition of an aqueous solution: ~0.044 day⁻¹
[1]; 60° C., pH 7, buffer concentration 5 mM, ionic strength 0.05
  rate constant (kobs) for decomposition of an aqueous solution: ~0.55 day⁻¹
[1]; low and approximately neutral conditions (pH)
  effect of increasing buffer concentration from 5 mM to 20 mM on rate constant of decomposition: increased the rate constant of decomposition significantly
[1]; pH region of about 4.5 to about 5.5
  effect of increasing buffer concentration from 5 mM to 20 mM on rate constant of decomposition: no noticeable differences in rate constant
[2]; 5° C.
  estimated shelf-life: about 6.2 years
[2]; 25° C.
  estimated shelf-life: about 7.5 months
[3]
  duration of bronchodilatory effect: greater than 12 hours
  onset of bronchodilatory effect: 1 to 3 min
physchem; aqueous buffer
  solubility: ~2200 µg/mL (≈ 6.39 mM)
physchem; pH 3, aqueous buffer
  solubility: ~4800 µg/mL (≈ 13.9 mM)
physchem; pH 4, aqueous buffer
  solubility: ~3000 µg/mL (≈ 8.71 mM)
physchem; water
  solubility: ~2000 µg/mL (≈ 5.81 mM)

Source: US6814953B2, “Bronchodilating compositions and methods” (Dey L.P., priority 2001, dated 2004)
